Experimental data reported in PubChem BioAssay AID2060598 (Global Health Medicines R&D, GSK, 2025).

Target: P. falciparum 3D7A growth, LDH activity
Experiment: parasite LDH-based blood-stage antimalarial activity – strain 3D7A, LDH readout, dose response (AID 2060598)

IC50 (restricted media, 72 h) [nM]	IC50 (standard media with serum) [nM]	SMILES
794	10000	Cn1cccc1C1CCCN1CC(=O)Nc1ccc(S(=O)(=O)N2CCOCC2)cc1 (stereo unspecified)
794	7940	O=C(CCN=C1NS(=O)(=O)c2ccccc21)Nc1ccc(S(=O)(=O)N2CCCC2)cc1
63.1	631	Cc1nn(C2CCS(=O)(=O)C2)c(C)c1CN(C)C(=O)CN1C(=O)NC2(CCCCC2C)C1=O (stereo unspecified)
251	3980	CN(C(=O)C[C@@H]1CCN(C(=O)C2CC2)C1)c1ccc(-c2ccc(C#N)cc2)cc1
126	1260	COc1ccc2oc(C(=O)NC3CCC(Oc4ncccn4)CC3)cc2c1 (stereo unspecified)
251	2510	O=C(COc1ccc(Br)cc1F)N1CCN(c2cnccn2)CC1
158	2000	O=C(/C=C/c1n[nH]c2ccccc12)N1CCN(c2cnccn2)CC1
79.4	1000	COc1ccc(N2CCN(C(=O)c3csc(Nc4ccccc4S(C)(=O)=O)n3)CC2)nc1
79.4	2000	O=C(Nc1ccc(N2CCCC2)nc1)N1CCN(c2cnccn2)CC1
20	200	O=C(Nc1nnc(-c2ccccc2)s1)N1CCCN(c2ncccn2)CC1
20	316	Cc1cc(Cl)ccc1OCC(=O)N1CCc2c(cnc(C)c2CNC(=O)c2ccc(=O)[nH]n2)C1
316	3160	NC(=O)CC1CCN(C(=O)c2sc3sccc3c2Cl)CC1
31.6	501	Cc1ccc2nc(CCNC(=O)CCS(=O)(=O)c3ccc4c(c3)CC(=O)N4C)[nH]c2c1
39.8	398	N#Cc1cccc(NC(=O)CNc2ccccc2C(=O)NC2CC2)c1
794	7940	O=C(Nc1cccnc1)C1CCN(c2ccc(-c3ccco3)nn2)CC1
50.1	631	N#Cc1c(N)n[nH]c1CCCNC(=O)c1ccc(Cl)c(S(=O)(=O)N2CCCC2)c1

IC50 (restricted media, 72 h) [nM]	IC50 (standard media with serum) [nM]	SMILES
63.1	794	O=C(NCCCN1CCc2ccccc21)c1ccc2c(=O)n(Cc3ccccn3)cnc2c1
316	3980	CCCOc1cncc(S(=O)(=O)c2ccc3c(c2)CCN(C2CCC2)CC3)c1
158	2000	O=C(CCCc1ncc(-c2ccccc2)o1)N1CCOC2CCCC21 (stereo unspecified)
398	3980	COc1ccc(NC(=O)c2ccc3c(=O)n(Cc4ccccn4)cnc3c2)cc1N1CCN(C)CC1
316	3160	O=C(/C=C/c1n[nH]c2ccccc12)Nc1ccc(C(=O)NCCN2CCOCC2)cc1
200	2510	CCN(C(=O)C=Cc1ccc(S(=O)(=O)N2CCc3ccccc32)cc1)C1CCS(=O)(=O)C1 (stereo unspecified)
398	5010	O=C(CCCc1c[nH]c2ccccc12)N1CCN(c2ccc(N3CCOCC3)nn2)CC1
126	1260	O=C(CCn1nnc2cc(S(=O)(=O)N3CCCC3)ccc21)N1CCN(c2ccccn2)CC1
501	5010	O=C1CSc2ccc(C(=O)Nc3ccc(-c4nnc5n4CCCCC5)cc3)cc2N1
501	10000	CC(C)Oc1ccc(-c2nnc(Oc3cccc4c3CCN(CCC(N)=O)CC4)s2)cc1C#N
794	7940	Cc1cccc(-c2nn(Cc3ccc(C(=O)NCCCO)cc3)c(=O)cc2N2CCCC(CO)C2)c1 (stereo unspecified)
31.6	316	O=C(c1cc2ccccc2[nH]1)N1CCC2(CC(Nc3ccncn3)C2)C1 (stereo unspecified)
501	> 50100	O=C1CCCN1c1ccc(S(=O)(=O)N2CCN(S(=O)(=O)c3ccccc3)CC2)cc1
63.1	631	COc1ccc(-c2ccc(CNC(=O)c3cc(C(=O)NC(C)C)ccc3Cl)cc2)cn1
126	1580	COc1ccc(C(=O)N2CCN(c3ccc(-n4cccn4)nn3)CC2)cc1OC
100	1580	Cc1cc(-c2cnc(N3CCn4c(nnc4C4CC4)C3)nc2-c2ccncc2)on1

SMILES	IC50 (restricted media, 72 h) [nM]	IC50 (standard media with serum) [nM]
CCN(CC)c1ccc(C(=O)COc2ccc3c(c2)CCNCC3)cc1	63.1	1000
